Legend:
Assay type in all cases: cell-based
[1] = target: T1, human TLR8 (Homo sapiens, UniProt Q9NR97); test: TLR8 inhibition reporter assay (HEK-Blue cells, SEAP reporter, R848 stimulation); settings: HEK-Blue cells overexpressing human TLR8, SEAP reporter, R848 15.9 μM
T1 construct: host or cells: HEK-Blue cells (HEK293-derived reporter line)
T1 sequence (Q9NR97 27-1041): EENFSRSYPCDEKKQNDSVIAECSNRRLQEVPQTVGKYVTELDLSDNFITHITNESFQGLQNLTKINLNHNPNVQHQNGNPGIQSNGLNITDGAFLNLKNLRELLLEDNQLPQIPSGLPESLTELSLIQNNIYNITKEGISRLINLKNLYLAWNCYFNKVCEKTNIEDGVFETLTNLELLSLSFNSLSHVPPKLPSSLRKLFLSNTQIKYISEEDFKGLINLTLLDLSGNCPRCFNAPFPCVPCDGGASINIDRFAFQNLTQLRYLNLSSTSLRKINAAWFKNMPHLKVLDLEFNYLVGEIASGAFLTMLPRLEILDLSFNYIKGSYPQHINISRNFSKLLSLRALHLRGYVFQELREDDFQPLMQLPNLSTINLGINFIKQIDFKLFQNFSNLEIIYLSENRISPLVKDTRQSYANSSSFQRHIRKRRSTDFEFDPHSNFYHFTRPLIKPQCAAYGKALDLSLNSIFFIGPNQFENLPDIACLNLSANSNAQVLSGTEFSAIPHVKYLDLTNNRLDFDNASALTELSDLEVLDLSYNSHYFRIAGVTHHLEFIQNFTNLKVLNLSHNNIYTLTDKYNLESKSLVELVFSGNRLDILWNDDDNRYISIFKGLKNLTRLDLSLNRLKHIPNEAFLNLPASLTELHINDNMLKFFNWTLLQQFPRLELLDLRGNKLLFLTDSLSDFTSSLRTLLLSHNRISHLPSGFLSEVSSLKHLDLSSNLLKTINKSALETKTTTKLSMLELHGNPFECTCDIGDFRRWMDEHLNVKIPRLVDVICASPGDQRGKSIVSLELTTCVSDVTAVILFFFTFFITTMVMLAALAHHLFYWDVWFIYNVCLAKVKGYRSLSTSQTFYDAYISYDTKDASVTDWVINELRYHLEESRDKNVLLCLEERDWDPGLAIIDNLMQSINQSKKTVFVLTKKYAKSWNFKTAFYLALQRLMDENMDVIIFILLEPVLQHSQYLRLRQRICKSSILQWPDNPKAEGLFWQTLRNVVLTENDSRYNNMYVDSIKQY
Procedure: (§1) TLR7/8/9 Inhibition Reporter Assays
(§2) HEK-Blue™-cells (Invivogen) overexpressing human TLR7, TLR8 or TLR9 receptors were used for screening inhibitors of these receptors using an inducible SEAP (secreted embryonic alkaline phosphatase) reporter gene under the control of the IFN-β minimal promoter fused to five NF-κB and AP-1-binding sites. Briefly, cells are seeded into Greiner 384 well plates (15000 cells per well for TLR7, 20,000 for TLR8 and 25,000 for TLR9) and then treated with test compounds in DMSO to yield a final dose response concentration range of 0.05 nM-50 μM. After a 30 minute compound pre-treatment at room temperature, the cells are then stimulated with a TLR7 ligand (gardiquimod at a final concentration of 7.5 μM), TLR8 ligand (R848 at a final concentration of 15.9 μM) or TLR9 ligand (ODN2006 at a final concentration of 5 nM) to activate NF-κB and AP-1 which induce the production of SLAP After a 22 hour incubation at […], SLAP levels are determined with the addition of HLK-Blue™ Detection reagent (Invivogen), a cell culture medium that allows for detection of SLAP, according to manufacturer's specifications. The percent inhibition is determined as the […] in the HEK-Blue signal present in wells treated with agonist plus DMSO alone compared to wells treated with a known inhibitor.

[2] = target: T2, human TLR9 (Homo sapiens, UniProt Q9NR96); test: TLR9 inhibition reporter assay (HEK-Blue cells, SEAP reporter, ODN2006 stimulation); settings: HEK-Blue cells overexpressing human TLR9, SEAP reporter, ODN2006 5 nM
T2 construct: host or cells: HEK-Blue cells (HEK293-derived reporter line)
T2 sequence (Q9NR96 26-1032): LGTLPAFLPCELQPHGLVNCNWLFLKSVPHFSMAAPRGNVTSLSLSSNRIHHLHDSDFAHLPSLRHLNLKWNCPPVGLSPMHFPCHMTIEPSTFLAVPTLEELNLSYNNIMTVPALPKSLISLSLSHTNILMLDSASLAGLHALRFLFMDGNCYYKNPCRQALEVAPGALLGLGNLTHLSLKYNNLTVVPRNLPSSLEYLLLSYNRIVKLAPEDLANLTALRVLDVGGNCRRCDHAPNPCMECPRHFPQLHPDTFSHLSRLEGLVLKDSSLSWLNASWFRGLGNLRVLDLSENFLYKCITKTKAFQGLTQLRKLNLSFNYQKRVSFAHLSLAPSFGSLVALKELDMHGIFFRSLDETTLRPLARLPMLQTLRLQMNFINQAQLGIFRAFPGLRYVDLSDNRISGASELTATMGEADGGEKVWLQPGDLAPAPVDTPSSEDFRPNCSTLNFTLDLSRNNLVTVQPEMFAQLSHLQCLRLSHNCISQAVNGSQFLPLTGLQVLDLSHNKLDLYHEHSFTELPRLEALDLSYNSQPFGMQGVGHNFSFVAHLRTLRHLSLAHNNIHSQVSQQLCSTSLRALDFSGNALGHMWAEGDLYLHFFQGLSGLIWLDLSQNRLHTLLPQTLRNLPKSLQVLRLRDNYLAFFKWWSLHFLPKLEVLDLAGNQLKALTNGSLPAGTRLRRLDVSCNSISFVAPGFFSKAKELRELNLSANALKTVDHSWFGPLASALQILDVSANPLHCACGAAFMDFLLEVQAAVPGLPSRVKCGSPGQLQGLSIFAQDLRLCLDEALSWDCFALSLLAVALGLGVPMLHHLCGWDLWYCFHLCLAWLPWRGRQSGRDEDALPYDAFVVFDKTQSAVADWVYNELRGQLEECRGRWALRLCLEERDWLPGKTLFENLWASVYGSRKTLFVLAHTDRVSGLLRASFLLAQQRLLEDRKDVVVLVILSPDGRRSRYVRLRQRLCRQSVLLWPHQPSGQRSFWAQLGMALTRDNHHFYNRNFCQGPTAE
Procedure: as §1, §2

[3] = target: T3, human TLR7 (Homo sapiens, UniProt Q9NYK1); test: TLR7 inhibition reporter assay (HEK-Blue cells, SEAP reporter, gardiquimod stimulation); settings: HEK-Blue cells overexpressing human TLR7, SEAP reporter, gardiquimod 7.5 μM
T3 construct: host or cells: HEK-Blue cells (HEK293-derived reporter line)
T3 sequence (Q9NYK1 27-1049): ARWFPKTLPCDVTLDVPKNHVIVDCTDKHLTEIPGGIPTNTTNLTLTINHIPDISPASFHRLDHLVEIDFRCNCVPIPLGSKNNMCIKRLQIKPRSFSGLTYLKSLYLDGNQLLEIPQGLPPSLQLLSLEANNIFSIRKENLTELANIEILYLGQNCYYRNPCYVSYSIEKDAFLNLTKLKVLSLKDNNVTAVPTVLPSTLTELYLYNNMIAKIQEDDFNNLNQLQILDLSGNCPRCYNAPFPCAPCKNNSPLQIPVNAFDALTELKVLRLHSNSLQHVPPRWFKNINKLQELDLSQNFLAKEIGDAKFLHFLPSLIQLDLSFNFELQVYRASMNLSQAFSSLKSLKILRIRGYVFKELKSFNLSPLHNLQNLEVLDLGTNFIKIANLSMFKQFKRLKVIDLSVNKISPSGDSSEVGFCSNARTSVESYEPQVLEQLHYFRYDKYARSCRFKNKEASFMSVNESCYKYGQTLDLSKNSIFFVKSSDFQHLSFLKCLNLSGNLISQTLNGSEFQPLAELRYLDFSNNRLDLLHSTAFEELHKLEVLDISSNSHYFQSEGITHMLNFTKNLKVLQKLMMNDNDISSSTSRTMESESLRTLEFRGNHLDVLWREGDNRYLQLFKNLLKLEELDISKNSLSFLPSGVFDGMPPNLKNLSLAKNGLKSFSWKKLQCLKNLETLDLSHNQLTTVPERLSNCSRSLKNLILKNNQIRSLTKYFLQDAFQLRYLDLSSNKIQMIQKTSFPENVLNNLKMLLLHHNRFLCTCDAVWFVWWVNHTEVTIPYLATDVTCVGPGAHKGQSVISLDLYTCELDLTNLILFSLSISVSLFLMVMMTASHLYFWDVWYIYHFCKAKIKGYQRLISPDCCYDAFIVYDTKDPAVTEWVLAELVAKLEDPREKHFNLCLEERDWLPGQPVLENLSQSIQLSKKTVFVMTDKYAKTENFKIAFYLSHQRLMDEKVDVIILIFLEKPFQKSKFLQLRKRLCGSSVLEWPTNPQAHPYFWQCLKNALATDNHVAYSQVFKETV
Procedure: as §1, §2

| Structure (SMILES) | IC50 [1] [µM] | IC50 [2] [µM] | IC50 [3] [µM] |
| --- | --- | --- | --- |
| CC(C)c1c(-c2ccc3c(N)noc3c2)[nH]c2ccc(C3CCNCC3)cc12 [Example 86, 6-(3-isopropyl-5-(piperidin-4-yl)-1H-indol-2-yl)benzo[d]isoxazol-3-amine] | 0.1 to 1 | 0.1 to 1 | 0.1 to 1 |
| CNC(=O)CN1CCC(c2ccc3[nH]c(-c4ccc5nc(C)cn5c4)c(CC(F)F)c3c2)CC1 [Example 417, 2-(4-(3-(2,2-difluoroethyl)-2-(2-methylimidazo[1,2-a]pyridin-6-yl)-1H-indol-5-yl)piperidin-1-yl)-N-methylacetamide] |  | 0.1 to 1 | < 0.1 |
| COc1cc(-c2[nH]c3ccc(C4CCN(CCS(C)(=O)=O)CC4)cc3c2C(C)C)cn2ccnc12 [Example 801, 6-(3-isopropyl-5-(1-(2-(methylsulfonyl)ethyl)piperidin-4-yl)-1H-indol-2-yl)-8-methoxyimidazo[1,2-a]pyridine] | < 0.1 | 1 to 50 |  |
| Cc1c(-c2ccnc3[nH]nnc23)[nH]c2ccc(C3CCNCC3)cc12 [Example 233, 7-(3-methyl-5-(piperidin-4-yl)-1H-indol-2-yl)-3H-[1,2,3] triazolo[4,5-b]pyridine] | 1 to 50 |  | 1 to 50 |
| CNCC(=O)N1CCC(c2ccc3[nH]c(-c4ccc5nc(C)cn5c4)c(CC(F)F)c3c2)CC1 [Example 550, 1-(4-(3-(2,2-difluoroethyl)-2-(2-methylimidazo[1,2-a]pyridin-6-yl)-1H-indol-5-yl)piperidin-1-yl)-2-(methylamino)ethan-1-one] |  | 0.1 to 1 | < 0.1 |
| Cc1c(-c2ncnc3c2cnn3C)[nH]c2ccc(C3CCN(C4CCN(C(C)C)CC4)CC3)cc12 [Example 818, 4-(5-(1′-isopropyl-[1,4′-bipiperidin]-4-yl)-3-methyl-1H-indol-2-yl)-1-methyl-1H-pyrazolo[3,4-d]pyrimidine] | > 3.13 | 0.1 to 1 |  |
| CC(C)c1c(-c2ccnc3[nH]ncc23)[nH]c2ccc(C3CCN(Cc4ccncc4Cl)CC3)cc12 [Example 923, 4-(5-(1-((3-chloropyridin-4-yl)methyl)piperidin-4-yl)-3-isopropyl-1H-indol-2-yl)-1H-pyrazolo[3,4-b]pyridine] | 0.1 to 1 |  | 0.1 to 1 |
| COC(=O)C1CC(N2CCC(c3ccc4[nH]c(-c5ccnc6[nH]ncc56)c(C(C)C)c4c3)CC2)CCN1 (centres unmarked) [Example 825, methyl 4-(3-isopropyl-2-(1H-pyrazolo[3,4-b]pyridin-4-yl)-1H-indol-5-yl)-[1,4′-bipiperidine]-2′-carboxylate] | < 0.1 | 0.1 to 1 |  |
| CCc1c(-c2cccc3c2cnn3C)[nH]c2ccc(C3CCN(C(=O)CN4CCCN(C)CC4)CC3)cc12 [Example 521, 1-(4-(3-ethyl-2-(1-methyl-1H-indazol-4-yl)-1H-indol-5-yl)piperidin-1-yl)-2-(4-methyl-1,4-diazepan-1-yl)ethan-1-one] | > 50 | 1 to 50 |  |
| CNCCN1CCC(c2ccc3[nH]c(-c4cnc5ccccc5c4)c(C)c3c2)CC1 [Example 664, N-methyl-2-(4-(3-methyl-2-(quinolin-3-yl)-1H-indol-5-yl)piperidin-1-yl)ethan-1-amine] | > 3.13 | 0.1 to 1 |  |
| Cc1cn2cc(-c3[nH]c4ccc(C5CCNCC5)cc4c3CC(F)F)ccc2n1 [Example 129, 6-(3-(2,2-difluoroethyl)-5-(piperidin-4-yl)-1H-indol-2-yl)-2-methylimidazo[1,2-a]pyridine] |  | 0.1 to 1 | < 0.1 |
| COc1cc(-c2[nH]c3ccc(C4CCNCC4)cc3c2C(C)C)cn2cc(C(=O)N(C)C)nc12 [Example 263, 6-(3-isopropyl-5-(piperidin-4-yl)-1H-indol-2-yl)-8-methoxy-N,N-dimethylimidazo[1,2-a]pyridine-2-carboxamide] | < 0.1 | 1 to 50 |  |
| Cc1cc(-c2[nH]c3ccc(C4CCN(C(=O)C[C@H](C)O)CC4)cc3c2C(C)C)cn2nnnc12 [Example 593, (S)-3-hydroxy-1-(4-(3-isopropyl-2-(8-methyltetrazolo[1,5-a]pyridin-6-yl)-1H-indol-5-yl)piperidin-1-yl)butan-1-one] | < 0.1 |  | < 0.1 |
| Cc1c(-c2[nH]c3ccc(C4CCNCC4)cc3c2C(C)C)ccc2nccn12 [Example 111, 6-(3-isopropyl-5-(piperidin-4-yl)-1H-indol-2-yl)-5-methylimidazo[1,2-a]pyridine] | 0.1 to 1 |  | < 0.1 |

From patent US11739098B2 (BRISTOL-MYERS SQUIBB COMPANY, priority 2017, dated 2023)
